Results as given in US20240293351A1, “METHODS OF ADMINISTERING SYNTHETIC TRITERPENOIDS” (REATA PHARMACEUTICALS HOLDINGS, LLC, priority 2020, published 2024).

What was measured:
[1] = BEAM (402-C-0804) phase 2b study, crystalline formulation; type: in vivo, human
[2] = Pharmacokinetic study 402-C-1102 in patients with type 2 diabetes and stage 3b/4 CKD (24-h urine); type: in vivo, human; conditions: 20 mg once daily 56 days
[3] = BEACON post-hoc review of EAC case packets for heart failure events within first four weeks; type: in vivo, human
Experimental: The first scheduled post-baseline assessment in BEACON was at Week 4. Since many of the heart failure events occurred prior to Week 4, the clinical database provides limited information to characterize these patients. Post-hoc review of the EAC case packets for heart failure cases that occurred prior to Week 4 was performed to assess clinical, vitals, laboratory, and imaging data collected at the time of the first heart failure event (Tables 13 and 14).
Baseline central laboratory values from the clinical database were compared to local laboratory values obtained on admission for heart failure that were included in the EAC packets.

[4] = human, in vivo, po
[5] = Drug-drug interaction study: bardoxolone methyl alone and with itraconazole in healthy volunteers; conditions: for AUC extra %, GM / AUC extra %, Mean / CL/F, GM / CL/F, Mean / λz, GM / λz, Mean / AUC(0-t) / AUC(0-inf) / Cmax / half-life / Vd/F / Tmax: plasma; for AUC(0-t) / AUC(0-inf) / Cmax / half-life / Vd/F / Tmax: human; for AUC(0-t): AUC0-t; for AUC(0-inf): AUC0-∞; for Vd/F: Vz/F
clinical = conditions: human, in vivo, po
[6] = Crystalline 25 mg QD 52 weeks, N = 57
[7] = Crystalline 75 mg QD 52 weeks, N = 57
[8] = Crystalline 150 mg QD 52 weeks, N = 56
[9] = Period 1: single oral 10 mg bardoxolone methyl alone, fasted, n = 16
[10] = Period 2: single 10 mg bardoxolone methyl with daily 200 mg itraconazole, n = 15
[11] = bardoxolone methyl alone (Period 1)
[12] = oral, 10 mg, Geom. Mean, Bardoxolone Methyl Alone (A), paired analysis n = 15
[13] = oral, GM, Period 2: single 10 mg bardoxolone methyl with daily 200 mg itraconazole, n = 15
[14] = oral, Geom. Mean, Bardoxolone Methyl + Itraconazole (B), paired analysis n = 15
[15] = oral, Mean, Period 2: single 10 mg bardoxolone methyl with daily 200 mg itraconazole, n = 15
[16] = po, 10 mg, GM, Period 1: single oral 10 mg bardoxolone methyl alone, fasted, n = 16
[17] = po, 10 mg, Mean, Period 1: single oral 10 mg bardoxolone methyl alone, fasted, n = 16

COC(=O)[C@]12CCC(C)(C)C[C@H]1[C@H]1C(=O)C=C3[C@@]4(C)C=C(C#N)C(=O)C(C)(C)[C@@H]4CC[C@@]3(C)[C@]1(C)CC2 [Bardoxolone methyl, methyl-2-cyano-3,12-dioxooleana-1,9-dien-28-oic acid]
AE, SOC Card: Cardiac failure congestive, patients n (%) [1, 6]: 2 (4) | AE, SOC Card: Dyspnoea paroxysmal nocturnal, patients n (%) [1, 6]: 0 | AE, SOC Card: Oedema peripheral, patients n (%) [1, 6]: 4 (7) | AE, SOC Genrl: Generalised oedema, patients n (%) [1, 6]: 2 (4) | AE, SOC Genrl: Oedema peripheral, patients n (%) [1, 6]: 11 (19) | AE, SOC Inv: Ejection fraction decreased, patients n (%) [1, 6]: 1 (2) | AE, SOC Metab: Fluid overload, patients n (%) [1, 6]: 3 (5) | AE, SOC Metab: Oedema peripheral, patients n (%) [1, 6]: 3 (5) | AE, SOC Resp: Dyspnoea exertional, patients n (%) [1, 6]: 1 (2) | AE, SOC Resp: Dyspnoea, patients n (%) [1, 6]: 2 (4) | AE, SOC Resp: Orthopnoea, patients n (%) [1, 6]: 0 | AE, SOC Resp: Pulmonary oedema, patients n (%) [1, 6]: 0 | SAE, SOC Card: Cardiac failure congestive, patients n (%) [1, 6]: 2 (4) | SAE, SOC Genrl: Oedema peripheral, patients n (%) [1, 6]: 0 | SAE, SOC Metab: Fluid overload, patients n (%) [1, 6]: 1 (2) | SAE, SOC Resp: Dyspnoea, patients n (%) [1, 6]: 0 | SAE, SOC Resp: Pulmonary oedema, patients n (%) [1, 6]: 0 | AE, SOC Card: Cardiac failure congestive, patients n (%) [1, 7]: 3 (5) | AE, SOC Card: Dyspnoea paroxysmal nocturnal, patients n (%) [1, 7]: 1 (2) | AE, SOC Card: Oedema peripheral, patients n (%) [1, 7]: 3 (5) | AE, SOC Genrl: Generalised oedema, patients n (%) [1, 7]: 0 | AE, SOC Genrl: Oedema peripheral, patients n (%) [1, 7]: 10 (18) | AE, SOC Inv: Ejection fraction decreased, patients n (%) [1, 7]: 0 | AE, SOC Metab: Fluid overload, patients n (%) [1, 7]: 2 (4) | AE, SOC Metab: Oedema peripheral, patients n (%) [1, 7]: 1 (2) | AE, SOC Resp: Dyspnoea exertional, patients n (%) [1, 7]: 0 | AE, SOC Resp: Dyspnoea, patients n (%) [1, 7]: 6 (11) | AE, SOC Resp: Orthopnoea, patients n (%) [1, 7]: 0 | AE, SOC Resp: Pulmonary oedema, patients n (%) [1, 7]: 1 (2) | SAE, SOC Card: Cardiac failure congestive, patients n (%) [1, 7]: 2 (4) | SAE, SOC Genrl: Oedema peripheral, patients n (%) [1, 7]: 0 | SAE, SOC Metab: Fluid overload, patients n (%) [1, 7]: 1 (2) | SAE, SOC Resp: Dyspnoea, patients n (%) [1, 7]: 0 | SAE, SOC Resp: Pulmonary oedema, patients n (%) [1, 7]: 1 (2) | AE, SOC Card: Cardiac failure congestive, patients n (%) [1, 8]: 3 (5) | AE, SOC Card: Dyspnoea paroxysmal nocturnal, patients n (%) [1, 8]: 0 | AE, SOC Card: Oedema peripheral, patients n (%) [1, 8]: 4 (7) | AE, SOC Genrl: Generalised oedema, patients n (%) [1, 8]: 0 | AE, SOC Genrl: Oedema peripheral, patients n (%) [1, 8]: 11 (20) | AE, SOC Inv: Ejection fraction decreased, patients n (%) [1, 8]: 0 | AE, SOC Metab: Fluid overload, patients n (%) [1, 8]: 0 | AE, SOC Metab: Oedema peripheral, patients n (%) [1, 8]: 3 (5) | AE, SOC Resp: Dyspnoea exertional, patients n (%) [1, 8]: 3 (5) | AE, SOC Resp: Dyspnoea, patients n (%) [1, 8]: 4 (7) | AE, SOC Resp: Orthopnoea, patients n (%) [1, 8]: 0 | AE, SOC Resp: Pulmonary oedema, patients n (%) [1, 8]: 0 | SAE, SOC Card: Cardiac failure congestive, patients n (%) [1, 8]: 2 (4) | SAE, SOC Genrl: Oedema peripheral, patients n (%) [1, 8]: 1 (2) | SAE, SOC Metab: Fluid overload, patients n (%) [1, 8]: 0 | SAE, SOC Resp: Dyspnoea, patients n (%) [1, 8]: 0 | SAE, SOC Resp: Pulmonary oedema, patients n (%) [1, 8]: 0 | Blood pressure ([1]; crystalline formulation, titration design): no clear dose-related trend was observed in blood pressure | 24-h Urinary Sodium, WK 8 Δ from baseline, mean ([2]; CKD Stage 3b, N = 9): −12 mmol/24 h | 24-h Urine Volume, WK 8 Δ from baseline, mean ([2]; CKD Stage 3b, N = 9): 355 mL | 24-h Urinary Sodium, WK 8 Δ from baseline, mean ([2]; CKD Stage 4, N = 6): −89 mmol/24 h | 24-h Urine Volume, WK 8 Δ from baseline, mean ([2]; CKD Stage 4, N = 6): -610 mL | LVEF at HF hospitalization, mean ([3]; n = 23): 52% ± | Serum Sodium at HF hospitalization, mean ([3]; n = 30): 139.0 mmol/L | Serum Sodium Δ (HF vs baseline), mean ([3]; n = 30): -1.0 mmol/L | Heart Rate at HF hospitalization, mean ([3]; n = 32): 81 bpm | Heart Rate Δ (HF vs baseline), mean ([3]; n = 32): 14.5 bpm | SBP at HF hospitalization, mean ([3]; n = 33): 154 mmHg | SBP Δ (HF vs baseline), mean ([3]; n = 33): 10.5 mmHg | DBP at HF hospitalization, mean ([3]; n = 34): 75 mmHg | DBP Δ (HF vs baseline), mean ([3]; n = 34): 7.9 mmHg | Serum Potassium at HF hospitalization, mean ([3]; n = 34): 4.8 mmol/L | Serum Potassium Δ (HF vs baseline), mean ([3]; n = 34): 0.1 mmol/L | Serum Creatinine at HF hospitalization, mean ([3]; n = 38): 2.7 mg/dL | Serum Creatinine Δ (HF vs baseline), mean ([3]; n = 38): -0.1 mg/dL | Dose dependence of systemic exposure [4]: increased linearly with increasing dose from 20 to 60 mg | Food effect on total systemic exposure [4]: no appreciable food effect | Increase in peak plasma levels (Cmax) with food [4]: approximately 71% | Time of peak plasma concentrations after dose administration [4]: 1 to 6 h | Tolerability of concomitant administration with itraconazole ([5]; 10 mg + itraconazole 200 mg): generally safe and well tolerated | Clearance (GM CL/F) ([5]; 10 mg single dose + itraconazole 200 mg daily): 41.6 L/h | Clearance (GM CL/F) ([5]; 10 mg single dose, alone): 359 L/h | Increase in exposure in the presence of itraconazole ([5]; 10 mg single dose, itraconazole 200 mg daily): > 5 fold | AUC extra %, GM [5, 9]: 5.81% | AUC extra %, Mean [5, 9]: 6.10% | CL/F, GM [5, 9]: 359 L/h | CL/F, Mean [5, 9]: 402 L/h | λz, GM [5, 9]: 0.0370 h⁻¹ | λz, Mean [5, 9]: 0.0392 h⁻¹ | AUC extra %, GM [5, 10]: 7.64% | AUC extra %, Mean [5, 10]: 8.47% | CL/F, GM [5, 10]: 41.6 L/h | CL/F, Mean [5, 10]: 42.8 L/h | λz, GM [5, 10]: 0.0074 h⁻¹ | λz, Mean [5, 10]: 0.00762 h⁻¹ | Subjects with a TEAE, n (%) [5, 11]: 3 (18.8%) | Subjects with study drug-related TEAEs (diarrhea, nausea, headache), n (%) [5, 11]: 1 (6.3%) | Subjects with a TEAE, n (%) ([5]; concomitant bardoxolone methyl and itraconazole (Period 2)): 1 (6.7%) | AUC(0-t) [5, 12]: 25.8 ng·h/mL | AUC(0-inf) [5, 12]: 27.6 ng·h/mL | Cmax [5, 12]: 2.41 ng/mL | half-life ([5]; oral, 10 mg, Mean t1/2, 10 mg single dose, alone): 19.8 h | AUC(0-t) [5, 13]: 220 ng·h/mL | AUC(0-t) [5, 14]: 220 ng·h/mL | AUC(0-t) [5, 15]: 226 ng·h/mL | AUC(0-inf) [5, 13]: 241 ng·h/mL | AUC(0-inf) [5, 14]: 241 ng·h/mL | AUC(0-inf) [5, 15]: 248 ng·h/mL | Cmax [5, 13]: 16.6 ng/mL | Cmax [5, 14]: 16.6 ng/mL | Cmax [5, 15]: 17.3 ng/mL | half-life ([5]; oral, Mean t1/2, 10 mg single dose + itraconazole 200 mg daily): 95.9 h | Vd/F [5, 13]: 5620 L | Vd/F [5, 15]: 5900 L | Tmax [5, 15]: 3.1 h | Tmax ([5]; oral, Median, Period 2: single 10 mg bardoxolone methyl with daily 200 mg itraconazole, n = 15): 3 h | half-life ([5]; oral, t½, Mean, Period 2: single 10 mg bardoxolone methyl with daily 200 mg itraconazole, n = 15): 95.9 h | half-life ([5]; oral, t½, Median, Period 2: single 10 mg bardoxolone methyl with daily 200 mg itraconazole, n = 15): 97.7 h | AUC(0-t) [5, 16]: 26.1 ng·h/mL | AUC(0-t) [5, 17]: 29.3 ng·h/mL | AUC(0-inf) [5, 16]: 27.8 ng·h/mL | AUC(0-inf) [5, 17]: 31 ng·h/mL | Cmax [5, 16]: 2.43 ng/mL | Cmax [5, 17]: 2.58 ng/mL | Vd/F [5, 16]: 9700 L | Vd/F [5, 17]: 10200 L | Tmax [5, 17]: 2.9 h | Tmax ([5]; po, 10 mg, Median, Period 1: single oral 10 mg bardoxolone methyl alone, fasted, n = 16): 2.5 h | half-life ([5]; po, 10 mg, t½, Mean, Period 1: single oral 10 mg bardoxolone methyl alone, fasted, n = 16): 19.8 h | half-life ([5]; po, 10 mg, t½, Median, Period 1: single oral 10 mg bardoxolone methyl alone, fasted, n = 16): 20.3 h | Changes in laboratory parameters ([5]; whole study): no clinically relevant mean or individual changes in laboratory parameters | Deaths, SAEs, adverse events leading to discontinuation ([5]; whole study): No subjects died, had an SAE, or had an adverse event that led to discontinuation of study drug | half-life (clinical): 48 to 60 h
